Several values for one entry are separate records, joined by “and”; a condition that tells them apart may be missing. Equal entries are not always repeated.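 Test compounds were applied to cells in 96-well plates for 48 hours at 5 doses. GI50 = concentration required for 50% inhibition of growth. TGI denotes the concentration required for complete inhibition of growth.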
Tests used:
Experiment in all cases: NCI-60 cell line screen, 48 h
EKVX NSCLC = tested on: EKVX NSCLC
HCT-116 colon = tested on: HCT-116 colon
IGROV1 ovarian = tested on: IGROV1 ovarian
K-562 leukemia = tested on: K-562 leukemia
M14 melanoma = tested on: M14 melanoma
MALME-3M melanoma = tested on: MALME-3M melanoma
MCF7 breast = tested on: MCF7 breast
NCI/ADR-RES ovarian = tested on: NCI/ADR-RES ovarian
RPMI-8226 leukemia = tested on: RPMI-8226 leukemia
SK-OV-3 ovarian = tested on: SK-OV-3 ovarian

Row | Compound | TGI (EKVX NSCLC) | TGI (HCT-116 colon) | TGI (IGROV1 ovarian) | TGI (K-562 leukemia) | TGI (M14 melanoma) | TGI (MALME-3M melanoma) | TGI (MCF7 breast) | TGI (NCI/ADR-RES ovarian) | TGI (RPMI-8226 leukemia) | TGI (SK-OV-3 ovarian) | GI50 (EKVX NSCLC) | GI50 (HCT-116 colon) | GI50 (IGROV1 ovarian) | GI50 (K-562 leukemia) | GI50 (M14 melanoma) | GI50 (MALME-3M melanoma) | GI50 (MCF7 breast) | GI50 (NCI/ADR-RES ovarian) | GI50 (RPMI-8226 leukemia) | GI50 (SK-OV-3 ovarian)
1 | O=C(O)C1=C/C(=C(/c2ccccc2)c2cc(C(=O)O)c(O)c3ccccc23)c2ccccc2C1=O | > 100 µM | > 100 µM | > 100 µM | > 100 µM | > 100 µM | > 100 µM | > 100 µM | > 100 µM | > 100 µM | > 100 µM |  |  |  |  |  |  |  |  |  | 
2 | COc1ccc(-c2cc(=O)c3c(O)c(OC)c(OC)c(OC)c3o2)cc1OC | > 100 µM | > 100 µM | > 100 µM | > 100 µM | > 100 µM | > 100 µM | > 100 µM | > 100 µM |  | 81 µM |  |  |  |  |  |  |  |  |  | 
3 | CCN1CCN(c2nc(C)cc(N(CCCNc3ccnc4cc(Cl)ccc34)Cc3ccc4c(c3)OCO4)n2)CC1 | 10.9 µM | 3.02 µM | 5.06 µM | 1.51 µM | 3.38 µM | 3.34 µM | 10.2 µM | 10.1 µM | 3.02 µM | 6.7 µM | 2.6 µM | 1.1 µM | 1.61 µM | 0.361 µM | 1.8 µM | 1.77 µM | 1.58 µM | 2.63 µM | 0.794 µM | 2.58 µM
4 | COc1ccc2c(c1)OC(N)=C(C#N)C2c1cc(OC)c(OC)c(OC)c1 (stereo unspecified) | > 100 µM | > 37.5 µM | > 51 µM | > 100 µM | > 100 µM | > 100 µM | > 100 µM | 0.0449 µM | > 100 µM | 1.11 µM | 0.251 µM | 0.0331 µM | 0.0463 µM | 0.0338 µM | 0.0336 µM | 80.5 µM | 0.0361 µM | 0.0199 µM | 0.0389 µM | 0.0304 µM
5 | O=C1CC(c2c[nH]c3ccc(F)cc23)C(=O)N1 (stereo unspecified) | > 100 µM | > 100 µM | > 100 µM | > 100 µM | > 100 µM | > 100 µM | > 100 µM | > 100 µM | > 100 µM | > 100 µM | > 100 µM | > 100 µM | > 100 µM | > 100 µM | > 100 µM | > 100 µM | > 100 µM | > 100 µM | > 100 µM | > 100 µM
6 | COc1cc2cc(Oc3ccc(NC(=O)Nc4cc(C(F)(F)F)cc(C(F)(F)F)c4)cc3)c(C)nc2cc1OCCN1CCOCC1 | 6.68 µM | 5.33 µM | 6.9 µM | 5.5 µM | 5.88 µM | 3.79 µM | 3.91 µM | 7.21 µM | 2.12 µM | 8.5 µM | 1.64 µM | 1.42 µM | 1.54 µM | 1.41 µM | 1.51 µM | 1.2 µM | 1.43 µM | 1.59 µM | 0.84 µM | 2.09 µM
7 | O=C(CS(=O)(=O)c1nc2ccccc2nc1-c1ccccc1)Nc1ccc(F)cc1 | > 100 µM | > 100 µM | > 100 µM | 16.6 µM | > 100 µM | > 100 µM | > 100 µM | > 100 µM | > 100 µM | > 100 µM | > 100 µM | 25.7 µM | 74 µM | 3.83 µM | > 100 µM | 80.7 µM | 43.1 µM | 33.7 µM | 29.1 µM | > 100 µM
8 | CSc1ccc(C2=C(c3ccccc3)C(=O)OC2)cc1 | > 100 µM | 61.7 µM | > 63.9 µM | > 100 µM | > 46.1 µM | 64.1 µM |  | > 34.9 µM |  | > 100 µM | 5.76 µM | 0.637 µM | 2.18 µM | 0.101 µM | 0.483 µM | 3.29 µM | 0.81 µM | 0.35 µM |  | 1.51 µM
9 | Cc1ccc(CNc2ccc(Br)cc2)cc1 | > 100 µM | > 100 µM |  | > 100 µM | > 100 µM | 64 µM | 61 µM | > 100 µM | 17.5 µM | > 100 µM |  |  |  |  |  |  |  |  |  | 
10 | COC(=O)NC1C(C)OC(OC2C/C=C(/C)C3C=CC4C(OC5CC(OC6CCC(OC7CC(O)C(OC8CCC(O)C(C)O8)C(C)O7)C(C)O6)C(OC(C)=O)C(C)O5)C(C)CC(C)C4C3(C)/C(O)=C3/C(=O)OC4(CC(C=O)=CC(O)C4/C=C\2C)C3=O)CC1(C)[N+](=O)[O-] (stereo unspecified) | 5.49 µM and 0.864 µM | 2.05 µM and 0.289 µM | 8.43 µM and 3.15 µM | 11 µM and 12.1 µM | 2.42 µM and 1.54 µM | 1.62 µM and 0.292 µM | 4.01 µM | 26.3 µM | 5.99 µM and 0.705 µM | 7.51 µM and 8.97 µM | 0.367 µM | 0.146 µM | 1.47 µM | 0.218 µM | 0.382 µM | 0.12 µM |  |  | 0.225 µM | 2.85 µM
11 | CCCn1c2c(c3ccccc3c1=O)C(=O)c1ccccc1-2 | > 100 µM | > 100 µM | > 100 µM | > 100 µM | > 100 µM | > 100 µM | > 100 µM | > 100 µM | > 100 µM | > 100 µM |  |  |  |  |  |  |  |  |  | 
12 | COc1cc2oc(-c3cccc(C(=O)Nc4ccc(Cl)cc4)c3)cc(=O)c2c(OC)c1OC | > 100 µM | > 100 µM | > 100 µM | > 100 µM | 4.73 µM | 7.26 µM | > 100 µM | > 100 µM | 3.79 µM | > 100 µM | 2.43 µM | 1.9 µM | 2.31 µM | 2.77 µM | 1.38 µM | 2.48 µM | 2.94 µM | 1.81 µM | 0.49 µM | 3.41 µM
13 | CCOC(=O)CSc1cc(Cl)c(C)cc1S(=O)(=O)/N=C(/N=C/c1ccc([N+](=O)[O-])s1)NNC | 49.2 µM | 26.3 µM | > 100 µM |  | 56.8 µM | 55.3 µM | > 100 µM | 30.7 µM | > 100 µM | 67.1 µM | 19.7 µM | 13.5 µM | 42.7 µM |  | 23.1 µM | 19.9 µM | 32.6 µM | 12.7 µM | 36.7 µM | 24.3 µM

Source: PubChem BioAssay (NCI)
